# Measurements from patent US20160355483A1, “COMPOUND BINDING TO PPARG BUT NOT ACTING AS PROMOTER AND PHARMACEUTICAL COMPOSITION FOR TREATING PPARG-RELATED DISEASES CONTAINING SAME AS ACTIVE INGREDIENT” (Hyundai Pharm Co., Ltd., priority 2014, published 2016).
# Entries after “also recorded” stand apart in the source; their conditions may differ.
# Key:
# [1] = molecular target: T1, PPARG (peroxisome proliferator activated receptor-gamma), GST-PPARG-LBD (Homo sapiens, UniProt P37231); experiment: LanthaScreen TR-FRET PPARG Competitive Binding Assay; set-up: key: “+” indicates the degree of the binding activity, and as the number of “+” increases, the binding activity is stronger; ++: “+” indicates the degree of the binding activity, and as the number of “+” increases, the binding activity is stronger; +++: “+” indicates the degree of the binding activity, and as the number of “+” increases, the binding activity is stronger; ++++: “+” indicates the degree of the binding activity, and as the number of “+” increases, the binding activity is stronger; conditions: degree of binding activity
# T1 construct: 15 μL of 5 nM GST-PPARG-LBD and 5 nM Tb-GST-antibody were added; purchased Invitrogen PV4894
# T1 sequence (P37231 238-503 limits assumed): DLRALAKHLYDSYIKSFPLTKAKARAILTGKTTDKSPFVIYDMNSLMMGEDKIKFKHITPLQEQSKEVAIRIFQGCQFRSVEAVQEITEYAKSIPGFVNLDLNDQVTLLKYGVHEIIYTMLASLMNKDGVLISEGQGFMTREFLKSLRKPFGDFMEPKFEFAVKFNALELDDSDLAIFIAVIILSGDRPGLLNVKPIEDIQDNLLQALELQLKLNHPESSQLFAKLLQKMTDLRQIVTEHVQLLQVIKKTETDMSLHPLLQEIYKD
# In short: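 GST-tagged human PPARG LBD in a TR-FRET competitive binding kit, 1 h at room temperature. Read-out is the 518/488 nm emission ratio (340 nm excitation); activity = 100% − compound ratio/vehicle ratio, compared with rosiglitazone.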
# [2] = molecular target: T2, CYP 2C19 (Homo sapiens, UniProt P33261); experiment: CYP (cytochrome P450)-suppressing effect, BD GENTEST kit; assay type: in vitro ADME
# T2 construct: purchased BD GENTEST 459400
# T2 sequence (P33261 whole entry): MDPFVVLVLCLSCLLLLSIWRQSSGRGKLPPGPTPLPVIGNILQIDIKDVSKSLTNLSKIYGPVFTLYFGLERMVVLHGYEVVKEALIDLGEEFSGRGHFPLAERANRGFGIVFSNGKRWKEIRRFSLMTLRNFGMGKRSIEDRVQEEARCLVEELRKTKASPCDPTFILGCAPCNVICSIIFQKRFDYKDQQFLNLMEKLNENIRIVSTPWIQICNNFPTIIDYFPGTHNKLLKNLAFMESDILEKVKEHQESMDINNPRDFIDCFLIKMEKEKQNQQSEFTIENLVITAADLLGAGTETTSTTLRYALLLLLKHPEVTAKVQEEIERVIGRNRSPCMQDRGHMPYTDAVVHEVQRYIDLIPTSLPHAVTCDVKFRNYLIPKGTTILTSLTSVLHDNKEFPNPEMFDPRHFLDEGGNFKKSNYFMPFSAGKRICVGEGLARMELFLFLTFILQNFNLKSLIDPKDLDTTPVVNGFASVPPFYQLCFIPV
# Experimental: (§1) To evaluate the CYP (cytochrome P450)-suppressing activity of the compounds prepared in the examples of the invention, the following experiment was performed.
# (§2) The analysis of CYP1A2, 2C19, and 3A4 suppressing activity was performed by using a BD GENTEST (459100, 459400, and 459500) kit, and the analysis of CYP 2C9- and 2D6-suppressing activity was performed by using an Invitrogen (P2861 and P2862) kit.
# (§3) When the BD GENTEST kit was used, the compounds of the present invention were diluted in acetonitrile at the final concentration of 50×. The NADPH-Cofactor mix was prepared by diluting the Cofactor, G6PDH, and control protein provided by the kit in DW according to the instructed concentration. 4 μL of the compound of the example (50×) was mixed with 96 μL of NADPH-Cofactor mix in a 96-well plate, followed by pre-incubation in a 37° C. incubator for 10 minutes.
# (§4) The enzyme/substrate mixture was diluted in the buffer (0.5 M potassium phosphate, pH 7.4) provided by the kit according to the instructed concentration. Each CYP450 enzyme substrate was diluted in DW at a desired concentration respectively according to the corresponding types of CYP450. 100 μL of the enzyme/substrate mixture was loaded in the plate when the pre-incubation had been completed, followed by reaction in a 37° C. incubator for 15 minutes (1A2) and 30 minutes (3A4 and 2C19). Upon completion of the reaction, the mixture was transferred to a white plate, and the fluorescent wavelength was measured with a microplate reader (1A2, 2C19 excitation 410 nm, emission 460 nm; 3A4, excitation 409 nm, emission 530 nm).
# (§5) The test results were calculated by the following formula:
# (§6) (1−(fluorescence value of the test material/fluorescence value of the vehicle))×100%.
# [3] = molecular target: T3, CYP 3A4 (Homo sapiens, UniProt P08684); experiment: as above; assay type: in vitro ADME
# T3 construct: purchased BD GENTEST 459500
# T3 sequence (P08684 whole entry): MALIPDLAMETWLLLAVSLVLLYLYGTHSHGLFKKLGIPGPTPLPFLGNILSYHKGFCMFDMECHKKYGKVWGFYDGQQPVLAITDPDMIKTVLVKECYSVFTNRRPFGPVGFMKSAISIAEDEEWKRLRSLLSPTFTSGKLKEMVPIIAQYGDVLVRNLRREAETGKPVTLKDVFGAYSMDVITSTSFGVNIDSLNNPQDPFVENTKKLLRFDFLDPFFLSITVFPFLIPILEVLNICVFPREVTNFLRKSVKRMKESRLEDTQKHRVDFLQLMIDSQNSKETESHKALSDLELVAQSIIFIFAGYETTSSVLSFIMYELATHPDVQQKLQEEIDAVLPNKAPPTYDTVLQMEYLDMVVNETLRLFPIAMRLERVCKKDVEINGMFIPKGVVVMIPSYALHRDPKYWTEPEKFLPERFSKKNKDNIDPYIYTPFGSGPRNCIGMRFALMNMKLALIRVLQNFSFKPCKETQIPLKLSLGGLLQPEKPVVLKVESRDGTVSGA
# Experimental: as §1, §2, §3, §4, §5, §6
# [4] = molecular target: T4, CYP1A2 (Homo sapiens, UniProt P05177); experiment: as above; assay type: in vitro ADME
# T4 construct: purchased BD GENTEST 459100
# T4 sequence (P05177 1-516): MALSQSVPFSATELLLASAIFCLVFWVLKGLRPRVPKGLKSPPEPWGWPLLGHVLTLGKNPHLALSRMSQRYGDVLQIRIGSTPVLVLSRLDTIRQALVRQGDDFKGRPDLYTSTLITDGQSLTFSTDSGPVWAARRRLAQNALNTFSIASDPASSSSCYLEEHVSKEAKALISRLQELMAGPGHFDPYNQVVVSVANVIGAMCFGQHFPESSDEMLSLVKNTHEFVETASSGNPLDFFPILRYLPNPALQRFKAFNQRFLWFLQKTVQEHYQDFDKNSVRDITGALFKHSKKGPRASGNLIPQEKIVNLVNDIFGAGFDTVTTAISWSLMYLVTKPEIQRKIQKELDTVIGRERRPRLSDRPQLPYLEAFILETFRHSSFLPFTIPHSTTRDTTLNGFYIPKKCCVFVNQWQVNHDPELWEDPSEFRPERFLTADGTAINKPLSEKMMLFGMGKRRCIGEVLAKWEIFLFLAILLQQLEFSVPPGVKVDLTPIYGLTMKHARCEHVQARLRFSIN
# Experimental: as §1, §2, §3, §4, §5, §6
# [5] = molecular target: T5, CYP 2C9 (Homo sapiens, UniProt P11712); experiment: CYP (cytochrome P450)-suppressing effect, Invitrogen Vivid kit; assay type: in vitro ADME
# T5 construct: purchased Invitrogen P2861
# T5 sequence (P11712 whole entry): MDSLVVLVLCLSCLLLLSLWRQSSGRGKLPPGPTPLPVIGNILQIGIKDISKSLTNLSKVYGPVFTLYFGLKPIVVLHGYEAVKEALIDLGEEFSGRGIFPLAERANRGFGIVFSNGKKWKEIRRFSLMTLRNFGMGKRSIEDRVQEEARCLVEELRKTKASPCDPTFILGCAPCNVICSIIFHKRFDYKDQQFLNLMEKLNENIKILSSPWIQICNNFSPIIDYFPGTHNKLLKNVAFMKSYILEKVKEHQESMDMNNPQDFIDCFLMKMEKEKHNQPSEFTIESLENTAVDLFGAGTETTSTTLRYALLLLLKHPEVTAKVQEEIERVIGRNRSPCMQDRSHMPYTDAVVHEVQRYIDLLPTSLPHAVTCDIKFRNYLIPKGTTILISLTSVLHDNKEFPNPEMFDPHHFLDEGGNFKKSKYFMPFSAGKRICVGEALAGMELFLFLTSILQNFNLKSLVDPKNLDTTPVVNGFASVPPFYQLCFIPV
# Experimental: as §1, §2
# (§7) When the Invitrogen kit was used, the compounds of the present invention were diluted in Vivid CYP450 reaction buffer (1×) at the final concentration of 2.5×. The P450 BACULOSOMES sample and Regeneration system (100×) were diluted in Vivid CYP450 reaction buffer (1×) at different proper concentrations. 80 μL of the compound of the invention (2.5×) and […] of the diluted P450 BACULOSOMES sample mixture were mixed in a U-bottom 96-well plate, followed by pre-incubation for 10 minutes. Vivid CYP450 Substrate and NADP+ (100×) were diluted in Vivid CYP450 reaction buffer (1×) at a desired concentration, respectively, according to their corresponding types of CYP450 and substrates. 20 μL of Substrate-NADP+ mix was loaded in the plate when the pre-incubation had been completed, followed by reaction for 1 hour. Upon completion of the reaction, the reaction mixture was transferred in a white plate and fluorescent wavelength was measured with a microplate reader (2C9 excitation 415 nm, emission 460 nm, 2D6 excitation 400 nm, emission 502 nm).
# as §5, §6
# [6] = molecular target: T6, CYP 2D6 (Homo sapiens, UniProt P10635); experiment: as above; assay type: in vitro ADME
# T6 construct: purchased Invitrogen P2862
# T6 sequence (P10635 whole entry): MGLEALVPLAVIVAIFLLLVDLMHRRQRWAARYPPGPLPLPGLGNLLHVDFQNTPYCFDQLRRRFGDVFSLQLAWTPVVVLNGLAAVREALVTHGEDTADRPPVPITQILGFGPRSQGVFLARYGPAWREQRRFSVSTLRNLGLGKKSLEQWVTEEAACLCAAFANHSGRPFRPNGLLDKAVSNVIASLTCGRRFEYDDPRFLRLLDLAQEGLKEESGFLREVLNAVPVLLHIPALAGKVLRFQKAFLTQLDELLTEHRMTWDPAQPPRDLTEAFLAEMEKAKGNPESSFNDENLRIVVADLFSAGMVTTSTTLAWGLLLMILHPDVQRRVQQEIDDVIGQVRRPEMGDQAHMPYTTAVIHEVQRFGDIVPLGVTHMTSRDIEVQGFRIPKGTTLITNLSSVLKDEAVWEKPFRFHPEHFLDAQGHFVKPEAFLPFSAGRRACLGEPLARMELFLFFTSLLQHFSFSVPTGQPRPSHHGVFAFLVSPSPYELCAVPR
# Experimental: as §1, §2, §7, §5, §6
# [7] = system: CYP isozymes 1A2, 2C9, 2C19, and 2D6; experiment: CYP suppression compared with comparative examples (Table 3); assay type: in vitro ADME; conditions: result in words
# Experimental: as §1, §2, §7, §3, §4, §5, §6
# [8] = molecular target: T7, HERG (Human Ether-a-go-go-Related Gene) channel (Homo sapiens, UniProt Q12809); experiment: Evaluation of cardiotoxicity, patch-clamp on HEK293 cells expressing HERG channel; assay type: cell-based; conditions: HERG peak tail current
# T7 construct: expressed in transfected cells; host or cells: HEK293
# T7 sequence (Q12809 whole entry): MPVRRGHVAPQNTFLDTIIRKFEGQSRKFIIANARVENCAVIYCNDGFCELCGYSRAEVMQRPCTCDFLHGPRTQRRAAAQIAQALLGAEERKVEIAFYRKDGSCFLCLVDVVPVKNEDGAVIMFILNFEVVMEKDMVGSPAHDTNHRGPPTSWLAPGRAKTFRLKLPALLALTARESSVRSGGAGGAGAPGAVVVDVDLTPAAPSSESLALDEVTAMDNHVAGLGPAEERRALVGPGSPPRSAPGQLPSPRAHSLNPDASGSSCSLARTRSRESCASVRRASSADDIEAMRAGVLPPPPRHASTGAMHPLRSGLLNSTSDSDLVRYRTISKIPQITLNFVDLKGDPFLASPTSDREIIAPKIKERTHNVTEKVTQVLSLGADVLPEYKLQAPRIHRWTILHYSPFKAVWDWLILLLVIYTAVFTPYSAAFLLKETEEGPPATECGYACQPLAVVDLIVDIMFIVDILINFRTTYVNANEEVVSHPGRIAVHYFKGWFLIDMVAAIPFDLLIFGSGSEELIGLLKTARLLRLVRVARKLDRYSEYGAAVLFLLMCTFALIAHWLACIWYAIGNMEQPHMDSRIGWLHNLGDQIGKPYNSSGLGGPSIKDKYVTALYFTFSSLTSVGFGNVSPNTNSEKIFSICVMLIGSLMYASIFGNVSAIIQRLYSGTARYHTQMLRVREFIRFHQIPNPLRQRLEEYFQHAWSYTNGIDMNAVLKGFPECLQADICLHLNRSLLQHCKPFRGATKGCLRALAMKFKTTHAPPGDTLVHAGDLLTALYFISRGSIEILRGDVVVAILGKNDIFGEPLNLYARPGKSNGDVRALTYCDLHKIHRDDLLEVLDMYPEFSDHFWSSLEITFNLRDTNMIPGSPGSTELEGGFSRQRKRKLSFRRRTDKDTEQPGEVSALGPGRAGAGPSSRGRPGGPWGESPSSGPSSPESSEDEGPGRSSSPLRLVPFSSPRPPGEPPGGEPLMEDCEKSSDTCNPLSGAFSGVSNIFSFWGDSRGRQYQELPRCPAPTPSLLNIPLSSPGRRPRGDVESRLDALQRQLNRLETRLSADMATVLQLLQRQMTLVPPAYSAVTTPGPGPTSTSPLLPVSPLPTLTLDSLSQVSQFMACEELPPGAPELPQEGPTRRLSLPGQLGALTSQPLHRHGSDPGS
# Experimental: HEK293 cells expressing HERG (Human Ether-a-go-go-Related Gene) channel safely were cultured in MEM (Minimum Essential Medium) supplemented with 10% fetal bovine serum (FBS), 1 mM sodium pyruvate, 0.1 mM non-essential amino acid solution, 100 units/ml penicillin-streptomycin, 100 μg/ml streptomycin sulfate and 100 μg/ml zeocin under the condition of air:CO2=95:5. When the cells were grown to 60-80% confluency, the cells were loaded in the medium supplemented with 0.25% trypsin and 0.02% EDTA (ethylenediaminetertraacetic acid) for 3 minutes. The cells were then washed with a fresh medium and then dispensed on a new plastic culture dish. For the electrophysiological record, the cells were seeded on a glass cover slip of 5 mm in diameter, followed by incubation in a 24-well plate for 5-24 hours. Then, the cells were transferred into the recording chamber.
# The current value of all the cells was measured by the conventional patch-clamp technique or Port-a-Patch (Nanion, Germany) semiautomatic technique. The pH of the external bath solution containing 136 mM NaCl, 5.4 mM KCl, 1.8 mM CaCl2, 1 mM MgCl2, 10 mM glucose, and 10 mM HEPES (4-(2-hydroxyethyl)-1-piperazineethanesulfonic acid) was adjusted to 7.4 using NaOH. The pH of the intracellular pipette solution containing 130 mM KCl, 1 mM MgCl2, 10 mM EGTA (ethylene glycol tetraacetic acid), 5 mM Mg-ATP, and mM HEPES was adjusted to 7.2 using KOH.
# In the conventional patch-clamp technique, the patch pipette was pulled by a PP-83 pipette puller (Narishige, Tokyo, Japan), so that it had 2-4 MΩ of resistance in the external bath solution. The ionic current was recorded by using EPC7 pulse amplifier (HEKA electronic, Germany). The voltage-clamp amplification was regulated using the pClamp computer program (Axon Instruments, USA), and the obtained data were analyzed. During the recording, the solution above was continually spread on HEK293 cells in the chamber. For the recording, the Port-a-Patch (Nanion, Germany) semiautomatic patch system was used, and the amplifier used herein was EPC10.
# The membrane potential was maintained at −80 mV, which was changed to +20 mV for 4 seconds, then changed to −50 mV for 6 seconds and then maintained again at −80 mV. The changes were made every 25 seconds.
# To obtain the concentration-reaction curve in the presence of the drug, dose-dependent inhibition was entered into the Hill formula represented by mathematical formula 1 below.
# In mathematical formula 1, Idrug indicates the peak tail current in the presence of a drug, Icontrol indicates the maximum peak tail current in the absence of a drug, D indicates the concentration of a drug, h indicates Hill constant, and IC50 indicates the concentration when the half-maximum peak tail current was suppressed.
Binding assay (1 μLM) [1],"CYP(10 μL, %) 2C19 [2] [%]","CYP(10 μL, %) 3A4 [3] [%]","CYP(10 μL, %) 1A2 [4] [%]","CYP(10 μL, %) 2C9 [5] [%]","CYP(10 μL, %) 2D6 [6] [%]",Compound,"suppression of CYP isozymes 1A2, 2C9, 2C19, and 2D6 compared with SR1664 and SR1824 [7]",IC50 [8] [µM]
+++,54.84,55.88,94.17,52.84,86.92,"C[C@H](NC(=O)c1ccc2c(c1)CCCN2Cc1cccc(-c2ccccc2C(N)=O)c1F)c1ccc([N+](=O)[O-])cc1 [Example 131, (S)-1-((2′-carbamoyl-2-fluoro-[1,1′-biphenyl]-3-yl)methyl)-N-(1-(4-nitrophenyl)ethyl)-1,2,3,4-tetrahydroquinoline-6-carboxamide]",less than the compounds of the comparative examples; also recorded: less strongly than the compounds of the Comparative Examples,
++,54.70,85.01,97.27,67.73,78.65,"C[C@H](NC(=O)c1ccc2c(c1)CCCN2Cc1ccc(-c2ccccc2C(N)=O)cc1F)c1ccc([N+](=O)[O-])cc1 [Example 113, (S)-1-((2′-carbamoyl-3-fluoro-[1,1′-biphenyl]-4-yl)methyl)-N-(1-(4-nitrophenyl)ethyl)-1,2,3,4-tetrahydroquinoline-6-carboxamide]",less than the compounds of the comparative examples; also recorded: less strongly than the compounds of the Comparative Examples,
+,,,,,,"C[C@H](NC(=O)c1ccc2c(c1)CCCN2Cc1ccccc1-c1ccc(C(=O)O)cc1)c1ccc2ccccc2c1 [Example 156, (S)-2′-((6-((1-(naphthalene-2-yl)ethyl)carbamoyl)-3,4-dihydroquinoline-1(2H)-yl)methyl)-[1,1′-biphenyl]-4-carboxylic acid]",,55.2
+++,58.85,52.65,102.45,59.36,82.48,"C[C@H](NC(=O)c1ccc2c(c1)CCCN2Cc1cccc(-c2ccccc2C(N)=O)c1)c1ccc([N+](=O)[O-])cc1 [Example 123, (S)-1-((2′-carbamoyl-[1,1′-biphenyl]-3-yl)methyl)-N-(1-(4-nitrophenyl)ethyl)-1,2,3,4-tetrahydroquinoline-6-carboxamide]",less than the compounds of the comparative examples; also recorded: less strongly than the compounds of the Comparative Examples,
+,74.03,71.21,101.50,52.02,94.83,"C[C@H](NC(=O)c1ccc2c(c1)CCCN2Cc1cccc(-c2ccccc2C(=O)O)c1)c1ccc(C#N)cc1 [Example 118, (S)-3′-((6-((1-(4-cyanophenyl)ethyl)carbamoyl)-3,4-dihydroquinoline-1(2H)-yl)methyl)-[1,1′-biphenyl]-2-carboxylic acid]",less than the compounds of the comparative examples; also recorded: less strongly than the compounds of the Comparative Examples,
+,,,,,,"C[C@H](NC(=O)c1ccc2c(c1)CCCN2Cc1ccccc1-c1ccc(C(=O)O)cc1)c1ccc([N+](=O)[O-])cc1 [Example 155, (S)-2′-((6-((1-(4-nitrophenyl)ethyl)carbamoyl)-3,4-dihydroquinoline-1(2H)-yl)methyl)-[1,1′-biphenyl]-4-carboxylic acid]",,73.6
+++,52.35,98.04,92.41,57.63,98.66,"C[C@H](NC(=O)c1ccc2c(c1)OCCN2Cc1ccc(-c2ccccc2C(N)=O)cc1)c1ccc2ccccc2c1 [Example 96, (S)-4-((2′-carbamoyl-[1,1′-biphenyl]-4-yl)methyl)-N-(1-(naphthalene-2-yl)ethyl)-3,4-dihydro-2H-benzo[b][1,4]oxazine-7-carboxamide]",less than the compounds of the comparative examples; also recorded: less strongly than the compounds of the Comparative Examples,
+++,69.53,53.03,97.28,55.18,88.44,"C[C@H](NC(=O)c1ccc2c(c1)CCCN2Cc1ccc(-c2ccccc2C(=O)O)cc1F)c1ccc(C#N)cc1 [Example 110, (S)-4′-((6-((1-(4-cyanophenyl)ethyl)carbamoyl)-3,4-dihydroquinoline-1(2H)-yl)methyl)-3′-fluoro-[1,1′-biphenyl]-2-carboxylic acid]",less than the compounds of the comparative examples; also recorded: less strongly than the compounds of the Comparative Examples,

Compound,Binding assay (1 μLM) [1],"CYP(10 μL, %) 2C19 [2] [%]","CYP(10 μL, %) 3A4 [3] [%]","CYP(10 μL, %) 1A2 [4] [%]","CYP(10 μL, %) 2C9 [5] [%]","CYP(10 μL, %) 2D6 [6] [%]","suppression of CYP isozymes 1A2, 2C9, 2C19, and 2D6 compared with SR1664 and SR1824 [7]",IC50 [8] [µM]
"C[C@H](NC(=O)c1ccc2c(c1)OCCN2Cc1ccc(-c2ccccc2C(=O)O)cc1)c1ccc([N+](=O)[O-])cc1 [Example 60, (S)-4′-((7-((1-(4-nitrophenyl)ethyl)carbamoyl)-2H-benzo[b][1,4]oxazine-4(3H)-yl)methyl)-[1,1′-biphenyl]-2-carboxylic acid]",++,69.60,70.64,100.63,80.25,62.27,less than the compounds of the comparative examples; also recorded: less strongly than the compounds of the Comparative Examples,
